What was measured:
[1] = AUC in obese insulin-resistant Zucker fa/fa rat at 30 mg/kg, po once daily for 7 days; format: ADME, organism-based; set-up: dose 30 mg/kg, route oral; conditions: plasma
[2] = Plasma clearance in monkey; format: ADME, organism-based, Macaca mulatta; conditions: rhesus monkey
[3] = biological target: T1, Peroxisome proliferator-activated receptor alpha (Canis lupus familiaris, UniProt Q95N78); experiment: Agonist activity at dog PPARalpha; format: functional; conditions: read-out: EC50
T1 sequence (Q95N78 whole entry): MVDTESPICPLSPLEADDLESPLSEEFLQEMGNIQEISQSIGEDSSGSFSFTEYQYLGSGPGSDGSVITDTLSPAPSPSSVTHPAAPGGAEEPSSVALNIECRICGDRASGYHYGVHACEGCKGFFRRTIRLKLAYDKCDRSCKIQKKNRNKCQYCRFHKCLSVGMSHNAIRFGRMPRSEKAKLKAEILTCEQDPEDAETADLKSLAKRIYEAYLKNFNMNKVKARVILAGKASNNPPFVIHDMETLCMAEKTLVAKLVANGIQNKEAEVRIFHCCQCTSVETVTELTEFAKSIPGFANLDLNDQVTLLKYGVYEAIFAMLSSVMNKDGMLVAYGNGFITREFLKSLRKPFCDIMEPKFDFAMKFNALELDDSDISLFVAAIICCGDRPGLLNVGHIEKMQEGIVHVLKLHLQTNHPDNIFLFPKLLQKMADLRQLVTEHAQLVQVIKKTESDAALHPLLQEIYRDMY

Rattus norvegicus [4] = experiment: Toxicity in Sprague-Dawley rat assessed as liver weight at 300 mg/kg dosed daily for 2 weeks; format: organism-based; set-up: dose 300 mg/kg; conditions: in vivo, 336 h
Liver microsomes = experiment: Protein binding in rat liver microsomes assessed per mg of protein; format: ADME, Microsome
[5] = biological target: T2, Peroxisome proliferator-activated receptor alpha (Homo sapiens, UniProt Q07869); experiment: Displacement of [3H2]nTZD3 from human recombinant GST-fused PPARalpha expressed in Escherichia coli by scintillation proximity assay
T2 sequence (Q07869 whole entry): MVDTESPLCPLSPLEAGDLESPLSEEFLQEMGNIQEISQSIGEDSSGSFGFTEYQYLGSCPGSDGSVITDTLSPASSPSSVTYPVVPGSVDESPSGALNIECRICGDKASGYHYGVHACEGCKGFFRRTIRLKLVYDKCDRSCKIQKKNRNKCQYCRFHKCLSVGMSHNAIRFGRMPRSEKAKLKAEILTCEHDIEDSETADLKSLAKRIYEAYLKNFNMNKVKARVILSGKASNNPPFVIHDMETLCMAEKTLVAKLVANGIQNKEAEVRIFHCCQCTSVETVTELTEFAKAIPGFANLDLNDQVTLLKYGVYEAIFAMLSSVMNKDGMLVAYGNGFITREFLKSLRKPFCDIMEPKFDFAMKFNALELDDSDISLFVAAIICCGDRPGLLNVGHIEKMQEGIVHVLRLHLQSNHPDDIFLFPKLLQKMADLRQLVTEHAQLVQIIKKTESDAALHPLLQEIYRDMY

[6] = Cmax in dog; format: ADME, organism-based, Canis lupus familiaris; conditions: in vivo
[7] = Plasma clearance in dog; format: ADME, organism-based, Canis lupus familiaris
[8] = Terminal half life in monkey; format: ADME, organism-based, Macaca mulatta; conditions: rhesus monkey, in vivo; read-out: beta t1/2 (converted)
[9] = Terminal half life in dog; format: ADME, organism-based, Canis lupus familiaris; conditions: in vivo, read-out: beta t1/2 (converted)
[10] = biological target: T3, Peroxisome proliferator-activated receptor alpha (Homo sapiens) (UniProt Q07869); experiment: Agonist activity at human recombinant PPARalpha expressed in COS1 cells coexpressing GAL4 assessed as transcriptional activity at 3000 nM after 48 hrs by luciferase reporter gene assay; format: functional, cell-based; conditions: COS-1
T3 sequence (whole entry): T2 sequence (Q07869 whole entry)

Mus musculus = experiment: Antihyperglycemic activity in db/db mouse assessed as reduction in blood glucose level at 30 mg/kg, po administered once daily for 11 days; format: functional; set-up: scale not given: the % may be the effect or the level left
[11] = AUC in obese insulin-resistant Zucker fa/fa rat at 150 mg/kg, po once daily for 7 days; format: ADME, organism-based; set-up: dose 150 mg/kg, route oral; conditions: plasma
Rattus norvegicus [12] = experiment: Toxicity in obese insulin-resistant Zucker fa/fa rat assessed as increase in extracellular fluid volume at 3 to 150 mg/kg, po once daily for 7 days measured after 24 hrs by bioelectrical impedance analysis; format: organism-based; set-up: dose 3-150 mg/kg, route oral; conditions: in vivo
Rattus norvegicus [13] = experiment: Toxicity in Sprague-Dawley rat assessed as heart weight at 300 mg/kg dosed daily for 2 weeks; format: organism-based; set-up: dose 300 mg/kg; conditions: in vivo, 336 h
Rattus norvegicus [14] = experiment: Toxicity in obese insulin-resistant Zucker fa/fa rat assessed as increase in heart weight volume at 3 to 150 mg/kg, po once daily for 7 days; format: organism-based; set-up: dose 3-150 mg/kg, route oral; conditions: in vivo, 168 h
[15] = Volume of distribution at steady state in monkey; format: ADME, organism-based, Macaca mulatta; conditions: rhesus monkey, in vivo; read-out: Vdss
Rattus norvegicus [16] = experiment: Toxicity in obese insulin-resistant Zucker fa/fa rat assessed as increase in plasma volume at 30 mg/kg, po once daily for 7 days by Evans blue dye dilution technique; format: organism-based; set-up: dose 30 mg/kg, route oral; conditions: in vivo, 168 h
[17] = Terminal half life in rat; format: ADME, organism-based; conditions: in vivo, read-out: beta t1/2 (converted)
[18] = AUC in db/db mouse at 30 mg/kg, po administered once daily for 11 days; format: ADME, organism-based; set-up: dose 30 mg/kg, route oral; conditions: plasma
Cricetinae = experiment: Agonist activity at hamster PPARalpha at 3000 nM; format: functional
Rattus norvegicus [19] = experiment: Toxicity in Sprague-Dawley rat assessed as brown adipose tissue weight at 300 mg/kg dosed daily for 2 weeks; format: organism-based; set-up: dose 300 mg/kg; conditions: in vivo, 336 h
[20] = Agonist activity at hamster PPARalpha; format: functional, Cricetinae; conditions: read-out: EC50
[21] = Oral bioavailability in dog; format: ADME, organism-based, Canis lupus familiaris; conditions: in vivo

CC[C@@H](Oc1cccc(-n2c(C)c(C(=O)c3ccc(OC)cc3)c3ccc(OC(F)(F)F)cc32)c1)C(=O)O [MK-0533]
AUC at 168 h [1]: 115 µM·h | clearance [2]: 10.1 mL/min/kg | EC50 [3]: 370 nM | Activity (Rattus norvegicus [4]): 19.7 g | PB (Liver microsomes): < 10 pmol | IC50 [5]: > 50000 nM | Cmax [6]: 2400 nM | clearance [7]: 7.5 mL/min/kg | half-life [8]: 3.2 h | half-life [9]: 3.6 h | Activity [10]: 33% | Activity (Mus musculus): 83% | AUC at 168 h [11]: 4520 µM·h | Activity (Rattus norvegicus [12]): Non-toxic | Activity (Rattus norvegicus [13]): 1.1 g | Activity (Rattus norvegicus [14]): Non-toxic | Vd [15]: 0.7 L/kg | Activity (Rattus norvegicus [16]): Non-toxic | half-life [17]: 1.6 h | AUC at 264 h [18]: 60 µM·h | Activity (Cricetinae): 52% | Activity (Rattus norvegicus [19]): 537 mg | EC50 [20]: 330 nM | bioavailability [21]: 59%

From ChEMBL document CHEMBL1137013, “Discovery of (2R)-2-(3-{3-[(4-Methoxyphenyl)carbonyl]-2-methyl-6-(trifluoromethoxy)-1H-indol-1-yl}phenoxy)butanoic acid (MK-0533): a novel selective peroxisome proliferator-activated receptor gamma modulator for the treatment of type 2 diabetes mellitus with a reduced potential to increase plasma …” (J Med Chem, 2009)
